Reference: patent publication US20230074252A1, “DOSAGES AND METHODS FOR TREATING PULMONARY ARTERIAL HYPERTENSION WITH RODATRISTAT” (Altavant Sciences GmbH, priority 2020, published 2023)

Columns and labels:
[1] = Intrinsic clearance in liver S9 fractions; assay type: in vitro ADME; details: human, liver S9 fraction
Description: The metabolic stability of RVT-1201 was measured in vitro in hepatocytes, liver microsomes, lung microsomes, intestinal S9, lung S9, liver S9 and whole blood. The major metabolite detected in incubations with human hepatocytes was KAR5417 (KRS-02). RVT-1201 was rapidly metabolized to form KAR5417, with <5% remaining after a 2 h incubation. In heat deactivated rat hepatocytes, <5% RVT-1201 remained after 2 h incubation in the same study. Therefore, RVT-1201 metabolism (and KAR5417 formation) are not dependent on oxidative or conjugative enzymatic processes. Formation of KAR5417 from RVT-1201 is a de-esterification process, which implicates an esterase or esterases as the major mechanism. The enzyme(s) responsible for RVT-1201 metabolism to form KAR5417 has not been identified but are considered to be carboxylesterase(s). In addition, RVT-1201 metabolism and KAR5417 formation were investigated in rat and human whole blood(XT184028).
However, in human whole blood incubations, no loss of RVT-1201 was observed. […] Therefore, metabolism of RVT-1201 was assigned to a cytosolic carboxylesterase (CES1) within the PBPK model. Although the enzyme responsible for RVT-1201 elimination and KAR5417 formation has not been identified, CES1 was selected to represent the enzymatic metabolism of RVT-1201 for this fit-for-purpose PBPK model.

[2] = Blood:plasma distribution; assay type: in vitro ADME; details: whole blood; read-out: Blood:plasma distribution (RB)
Text: (§1) Calculation of Cmax, u, portal uses plasma Cmax, fraction of an oral dose absorbed (Fa) and measured unbound fraction in blood. For rodatristat, experimentally derived values were used for Fa determined in a rat 14C study (20%) and in vitro binding to human plasma (99.1%) and blood:plasma distribution (RB, 0.72). Walsky et al proposed a threshold where the ratio of Cmax, u, portal/Ki of <0.1 is associated with low risk. […] In the rat, the RE:R is ˜3-fold higher in portal blood compared to the periphery.

[3] = Rat 14C study, fraction of oral dose absorbed; assay type: in vivo
Text: as §1

[4] = Metabolic stability in liver preparations across species; assay type: in vitro ADME
Text: (§2) The metabolism of rodatristat ethyl is predominantly by esterase mediated hydrolysis of the ester pro-drug moiety to rodatristat in liver tissue preparations from human, rat, dog, and cynomolgus monkey, and intestinal and lung tissues from rat and human. Hydrolysis of rodatristat ethyl was also observed in rat blood, and to a much lesser extent in dog and human blood.

[5] = Elimination route in rat; assay type: in vivo
Text: as §2

Row | SMILES | microsomal CLint [1] [µL/min/mg] | blood plasma ratio [2] | Fraction of an oral dose absorbed (Fa) [3] [%] | Metabolic stability in liver preparations [4] | Elimination route [5]
1 | CCOC(=O)[C@@H]1CC2(CCN(c3cc(O[C@H](c4ccc(Cl)cc4-c4ccccc4)C(F)(F)F)nc(N)n3)CC2)CN1 [Rodatristat ethyl, (S)-ethyl 8-(2-amino-6-((R)-1-(5-chloro-[1,1′-biphenyl]-2-yl)-2,2,2-trifluoroethoxy)pyrimidin-4-yl)-2,8-diazaspiro[4.5]decane-3-carboxylate] | 20 | – | – | – | –
2 | Nc1nc(O[C@H](c2ccc(Cl)cc2-c2ccccc2)C(F)(F)F)cc(N2CCC3(CC2)CN[C@H](C(=O)O)C3)n1 [Rodatristat, (S)-8-(2-amino-6-((R)-1-(5-chloro-[1,1′-biphenyl]-2-yl)-2,2,2-trifluoroeth-oxy)pyrimidin-4-yl)-2,8-diazaspiro[4.5]decane-3-carboxylic acid] | – | 0.72 | 20 | metabolically stable | largely eliminated unchanged in bile
